The results in this text go back to PubChem BioAssay (NCI).

Among the test systems are SF-539 CNS; COLO 205 colon; HL-60(TB) leukemia; MDA-MB-435; HS 578T breast; DU-145 prostate; KM12 colon; IGROV1 ovarian; OVCAR-5 ovarian; HOP-92 NSCLC.
Holding throughout (assay): NCI-60 cell line screen, 48 h

Several values for one entry are separate records, joined by “and”; a condition that tells them apart may be missing. Equal values may be shown once.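 Results reflect a 48-hour exposure of cells in 96-well plates to compound at five concentrations. GI50 marks 50% less growth. TGI marks complete inhibition of growth.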

As for `CCSc1nc(SCC)c2cn[nH]c2n1`, the GI50 in the assay on SF-539 CNS was 21.8 µM; with COLO 205 colon, 34400 nM; in the assay on HL-60(TB) leukemia, 72400 nM; in the assay with MDA-MB-435, 49.6 µM; in the assay on HS 578T breast, 10700 nM; with DU-145 prostate, 30600 nM. Besides, the GI50 in the assay on KM12 colon is 42 µM; with IGROV1 ovarian, 49 µM; with OVCAR-5 ovarian, 69100 nM; in the assay with HOP-92 NSCLC, 34600 nM. For the same compound, the TGI with SF-539 CNS was 82.9 µM; with COLO 205 colon, more than 100 µM; with HL-60(TB) leukemia, more than 100 µM; in the assay with MDA-MB-435, more than 100 µM; with HS 578T breast, 48.6 µM; in the assay with DU-145 prostate, more than 100 µM. Also, the TGI in the assay with KM12 colon, with IGROV1 ovarian, with OVCAR-5 ovarian and in the assay on HOP-92 NSCLC was more than 100 µM throughout.
For `ClCc1cccc(Cn2cnc3nc(Cl)nc(Cl)c32)c1`, the GI50 is 0.189 µM with SF-539 CNS; 1690 nM with COLO 205 colon; 1160 nM in the assay on HL-60(TB) leukemia; 1.65 µM in the assay with MDA-MB-435; 430 nM in the assay on HS 578T breast; 141 nM in the assay with DU-145 prostate. Besides, the GI50 in the assay with KM12 colon is 16.7 µM; with IGROV1 ovarian, 4.45 µM; with OVCAR-5 ovarian it was 1630 nM; in the assay with HOP-92 NSCLC, 1460 nM. For the same compound, the TGI in the assay on SF-539 CNS came out at 0.496 µM; with COLO 205 colon it was 4.22 µM; in the assay on HL-60(TB) leukemia, 2.38 µM; in the assay with MDA-MB-435 it was 3.16 µM; in the assay on HS 578T breast, 2.51 µM; in the assay with DU-145 prostate it was 0.271 µM. Besides, the TGI in the assay with KM12 colon amounted to 35.4 µM; with IGROV1 ovarian, 8.92 µM; in the assay with OVCAR-5 ovarian it was 3.31 µM; with HOP-92 NSCLC it was 2.78 µM.
As to `COc1ccc(CC2NCCc3cc(OC)c(OC)cc32)cc1Br` (centres undefined), the TGI in the assay with SF-539 CNS was more than 100 µM; in the assay on COLO 205 colon it was 32.6 µM; in the assay on HL-60(TB) leukemia, 28.1 µM; in the assay on MDA-MB-435, 60 µM; in the assay with HS 578T breast it was more than 100 µM; with DU-145 prostate it was more than 100 µM. Further, the TGI in the assay on KM12 colon is more than 100 µM; in the assay on IGROV1 ovarian it was more than 100 µM; with OVCAR-5 ovarian, more than 77.7 µM; with HOP-92 NSCLC, 61.7 µM.
As for `COc1cc(NC(C)CCCN)c2nccc(C)c2c1` (centres undefined), the TGI in the assay with SF-539 CNS was 35.3 µM; in the assay with COLO 205 colon, 28.4 µM; in the assay with HL-60(TB) leukemia, 21.1 µM; in the assay with MDA-MB-435, 30.4 µM; with HS 578T breast, 64.3 µM; with DU-145 prostate, more than 100 µM. The TGI with KM12 colon was 32.5 µM; in the assay on IGROV1 ovarian, 44.6 µM; in the assay with OVCAR-5 ovarian it was more than 100 µM; in the assay with HOP-92 NSCLC it was more than 100 µM.
`Clc1ccc(C=Nc2ccc3c(c2)Cc2ccccc2-3)c(Cl)c1`: the TGI in the assay with SF-539 CNS, in the assay on COLO 205 colon, with HL-60(TB) leukemia, in the assay with MDA-MB-435, in the assay on HS 578T breast and with DU-145 prostate was more than 100 µM in each case. In addition, the TGI in the assay on KM12 colon, with IGROV1 ovarian, in the assay on OVCAR-5 ovarian and in the assay with HOP-92 NSCLC was more than 100 µM throughout.
As to `O=c1cc(NC2CCN(CCCc3ccccc3)CC2)c2cc(Cl)ccc2o1`, the GI50 was 12.3 µM in the assay on SF-539 CNS; 9980 nM with COLO 205 colon; 20500 nM in the assay on HL-60(TB) leukemia; 5.26 µM in the assay with MDA-MB-435; 15100 nM with HS 578T breast; 15800 nM in the assay with DU-145 prostate. The GI50 is 12.5 µM in the assay with KM12 colon, 11.3 µM in the assay on IGROV1 ovarian, 10800 nM with OVCAR-5 ovarian and 11900 nM in the assay with HOP-92 NSCLC. The TGI in the assay on SF-539 CNS is 25.3 µM; in the assay on COLO 205 colon, 23.2 µM; in the assay on HL-60(TB) leukemia, 49.3 µM; in the assay with MDA-MB-435 it was 18.1 µM; in the assay with HS 578T breast it was 36 µM; with DU-145 prostate, 29.3 µM. Also, the TGI with KM12 colon is 25 µM; with IGROV1 ovarian, 26.6 µM; with OVCAR-5 ovarian, 24.6 µM; in the assay with HOP-92 NSCLC it was 27.7 µM.
On to `CCc1nc(C(N)=O)c(Nc2ccc(N3CCC(N4CCN(C)CC4)CC3)c(OC)c2)nc1NC1CCOCC1`, for which the GI50 in the assay with SF-539 CNS was 5.46 µM and 1.05 µM and 7.87 µM; in the assay with COLO 205 colon it was 1550 nM and 281 nM and 1570 nM; in the assay on HL-60(TB) leukemia it was 871 nM and 367 nM and 968 nM; with MDA-MB-435, 3.23 µM and 0.511 µM and 3.96 µM; with HS 578T breast it was 1560 nM and 514 nM and 1850 nM; in the assay with DU-145 prostate, 904 nM and 359 nM and 719 nM. In addition, the GI50 in the assay on KM12 colon is 0.0933 µM and 0.0338 µM and 0.0649 µM; in the assay with IGROV1 ovarian, 0.876 µM and 0.279 µM and 0.79 µM; with OVCAR-5 ovarian, 484 nM and 279 nM and 486 nM; with HOP-92 NSCLC, 173 nM and 82.7 nM and 247 nM. Also, the TGI with SF-539 CNS was 20.3 µM and > 2.27 µM and 22.1 µM; in the assay on COLO 205 colon it was 9.65 µM and > 1.98 µM and 14.2 µM; with HL-60(TB) leukemia it was 11.3 µM and > 10 µM and 14.9 µM; in the assay with MDA-MB-435, 20.7 µM and > 6.91 µM and 20.8 µM; in the assay with HS 578T breast it was 9.48 µM and > 2.32 µM and 11.3 µM; in the assay with DU-145 prostate, 18.5 µM and > 10 µM and 17.3 µM. In addition, the TGI is 12.8 µM and > 10 µM and 12 µM in the assay with KM12 colon; 8.09 µM and > 10 µM and 8.12 µM with IGROV1 ovarian; 14.5 µM and > 10 µM in the assay with OVCAR-5 ovarian; 1.62 µM and 0.64 µM and 1.63 µM in the assay with HOP-92 NSCLC.
For the compound `O=c1cccc(C#CC#CC2=CCCCC2)o1`, the GI50 is 0.235 µM with SF-539 CNS; 4580 nM with COLO 205 colon; 4770 nM with HL-60(TB) leukemia; 4 µM in the assay with MDA-MB-435; 5240 nM with HS 578T breast; 1960 nM in the assay with DU-145 prostate. Besides, the GI50 in the assay on KM12 colon is 5.84 µM; in the assay with IGROV1 ovarian it was 5.4 µM; in the assay with OVCAR-5 ovarian, 6210 nM. Also, the TGI in the assay with SF-539 CNS worked out at 3.04 µM; in the assay with COLO 205 colon, 13.5 µM; in the assay on HL-60(TB) leukemia, 18.3 µM; with MDA-MB-435, 10.4 µM; in the assay on HS 578T breast it was 24.3 µM; in the assay with DU-145 prostate, 4.4 µM. Further, the TGI with KM12 colon was 13.6 µM; in the assay with IGROV1 ovarian, 18.1 µM; in the assay with OVCAR-5 ovarian, 10.2 µM; in the assay on HOP-92 NSCLC it was more than 23 µM.
